# Reference: patent US10617721B2, “Methods for genetic modification of stem cells” (Ospedale San Raffaele S.R.L., priority 2013, dated 2020)
# Key:
# [1] = test system: CD34^+ cells from adult bone marrow; test: Lentiviral vector transduction of adult bone marrow CD34+, CD34+CD38- and CD34+CD38+ cells with or without dmPGE2; format: cell-based, human; conditions: CD34^+ or CD34^+CD38^− HSPC from adult bone marrow after dmPGE2 treatment (10 μM)
# Method: The experiments were carried out as follows: CD34^+ cells from N=3 bone marrow donors (Lonza) were thawed and put into culture in Stem span serum free expansion medium (SFEM) under the following conditions: pre-stimulation in 300 ng/mL SCF, 300 ng/mL FLT3L, 100 ng/mL TPO, 60 ng/mL IL3 for 18 h. Cells were then divided into 3 groups: bulk CD34^+, CD34^+CD38^−, CD34^+CD38^+ (FACS-sorted on a MoFlow cytometer after marking with CD38-APC antibody from BD Bioscience). We then added dmPGE2 (10 μM) or DMSO to the cultures, and pre-stimulated the cells for another 16 h before they were transduced with a GFP-expressing lentiviral vector (LV.PGK.GFP) at 10^8 TU/mL. In vitro culture assays were performed, either as liquid culture for 14 days in IMDM+10% FCS (left) or colony forming cell (CFC) assay (right; plated 800 cells/mL methocult, analysed colony outgrowth after 14 d). Vector copy number was assessed by qPCR as described in Gentner B et al. Nat. Methods 2009; 6:63-66.
# cord blood CD34^+ cells [2] = test: VCN and engraftment after xenotransplantation of dmPGE2-stimulated, LV-transduced cord blood CD34+ cells into NSG mice; format: in vivo
# Method: Cord blood CD34^+ cells were thawed and placed in culture (10^6 cells/mL) in Stem span serum free medium (SFEM) supplemented with 100 ng/mL SCF, 100 ng/mL FLT3L, 50 ng/mL TPO, 50 ng/mL IL-6 for 18 h (pre-stimulation) and subsequently transduced with a lentiviral vector at 10^8 TU/mL for 24 h. Cells were injected into sublethally irradiated, 8 week old NSG mice (1.5-3×10^5 cells per mouse), and vector copy number (VCN) was analysed in the pooled blood or bone marrow of each group of mice at the indicated time-points using primers specific for human cells. 3 replicate experiments are shown. Left graph: Cells were transduced with a PGK.TRAIL LV, and 10 μM dmPGE2 (dmPGE2 group, n=5 mice) or DMSO (Ctrl group, n=5 mice) was added directly after thawing (t=−16 h with respect to vector addition). Middle graph: Cells were transduced with a PGK.TRAIL LV, and 10 μM dmPGE2 (dmPGE2 group n=5) or DMSO (Ctrl group; n=8) was added 120 min before vector addition (t=−2 h). […], and 10 μM dmPGE2 (dmPGE2 group n=5) or DMSO (Ctrl group; n=5) was added 120 min before vector addition (t=−2 h). In all three experiments, the benefit in transduction observed in vitro was stably maintained long-term, up to 18 weeks after xenotransplantation.
# cord blood CD34^+ cells [3] = test: Lentiviral vector transduction of cord blood CD34+ cells with or without dmPGE2, VCN by qPCR (in vitro); format: cell-based, human
# Method: CD34^+ cells from n=4 cord blood donors (Lonza) were thawed and put into culture in Stem span serum free expansion medium (SFEM) supplemented with 100 ng/mL SCF, 100 ng/mL FLT3L, 50 ng/mL TPO, 50 ng/mL IL6 for 18 h (pre-stimulation), in the presence or absence of 10 μM dmPGE2. After pre-stimulation, cells were incubated with 10^8 TU/mL of a lentiviral vector for 24 h. Cells were then cultured in vitro (n=5 replicates) for 14 days in IMDM+10% FCS before vector copy number (VCN) was measured by qPCR as described in Gentner, B. et al. (2009) Nat.
# [4] = test system: CD34^+ cells from G-CSF mobilised peripheral blood (mPB); test: VCN in long-term repopulating cells after xenotransplantation of mPB CD34+ cells transduced by protocols P0-P4; format: in vivo, NSG mice
# Method: CD34^+ cells from G-CSF mobilised peripheral blood (mPB) were thawed and placed in culture (10^6 cells/mL) in CellGro medium supplemented with SCF (300 ng/mL), FLT3L (300 ng/mL), TPO (100 ng/mL) and IL-3 (60 ng/mL). Cells were transduced with third generation lentiviral vectors coding for gp91^phox (vectors suitable for the gene therapy of chronic granulomatous disease) at a dose of 10^8 TU/mL. The different protocols used for ex vivo transduction of mPB CD34+ cells are illustrated in (E) and differ in terms of the presence (P1, P2, P3) or absence (P0, P4) of dmPGE2, the timing of dmPGE2 addition (after thawing: P1, P2; 120 min before transduction: P3) and the duration of culture (24 h: P2, P4 versus 44 h: P0, P1, P3).
# (F) 10×10^6 CD34^+ mPB cells from donor 1 were thawed, divided into 4 equal parts and transduced with the SP146/gp91.cogp91^phox. 126T LV from an industry-grade production (Molmed Spa) according to P0, P1, P2 or P3. The outgrowth of 5×10^5 cells put into culture at time zero was injected per mouse (actual numbers: P0 3.66×10^5 per mouse; P1: 4.66×10^5 per mouse; P2: 3.0×10^5 per mouse; P3: 4.86×10^5 per mouse). Mice were euthanised at 20 weeks post transplantation. BM was flushed and pooled from the mice belonging to the same group (P0, P1, P2: n=5 per group; P3: n=3 per group) and depleted for mouse cells. Enriched human cells were then subjected to vector copy number (VCN) analysis using primers specific for human cells (5 technical replicates).
# A replicate experiment was performed using mPB CD34^+ cells from a second donor (G). 15×10^6 CD34^+ mPB cells were thawed, divided into 4 equal parts and transduced with the SP146/gp91.gp91^phoxTGT.126T LV (a vector suitable for CGD gene therapy) coming from a lab-grade production according to protocols P0, P1 (44 h−/+dmPGE2) or P4, P2 (24 h−/+dmPGE2). The outgrowth of 9×10^5 cells put into culture at time zero was injected per mouse (actual numbers: P0 10×10^5 per mouse; P1: 8.2×10^5 per mouse; P4: 4.5×10^5 per mouse; P2: 5.3×10^5 per mouse). VCN was analysed on BM cells from each single mouse 13 weeks after transplantation using a qPCR assay specific for human cells.
# human HSPCs = test: Timing of dmPGE2 stimulation and transducability of human HSPCs by lentiviral vectors; format: cell-based
# Method: This experiment was carried out on 1 cord blood and 1 mobilised peripheral blood donor, the relative VCN is shown (normalised to its respective control).
# [5] = test system: G-CSF-mobilised CD34+ peripheral blood stem cells; test: Lentiviral vector transduction of G-CSF-mobilised CD34+ peripheral blood stem cells with or without dmPGE2 (in vitro); format: cell-based, human; conditions: pre-stimulated with dmPGE2, 18 h
# Method: N=6 transductions of 3 mobilised peripheral blood donors. Cells were thawed, resuspended in serum-free, commercial culture medium (e.g. CellGro) at a density of 10^6 cells/mL in the presence of the following cytokines: 300 ng/mL SCF, 300 ng/mL FLT3L, 100 ng/mL TPO, 60 ng/mL IL-3, and prestimulated for 18 h, in the absence (control, Ctrl) or presence of dmPGE2. Transduction was performed with lentiviral vectors (3 different batches) at 10^8 TU/mL for 12-24 h. Vector copy number was assessed by qPCR after 14 days of in vitro culture in IMDM and 10% FCS. Relative VCN (normalised to the Control group) is shown.
smiles,measurement,setting,value
"CCCCC(C)(C)[C@H](O)/C=C/[C@H]1[C@H](O)CC(=O)[C@@H]1C/C=C\CCCC(=O)O [dmPGE2, 16,16-dimethyl prostaglandin E2]",increased gene transfer efficiency,[1],1.5 fold
same,time over which benefit in transduction was stably maintained after xenotransplantation,"cord blood CD34^+ cells [2]; 10 μM dmPGE2 at t=−16 h or t=−2 h, three experiments",up to 18 weeks
same,engraftment levels,"cord blood CD34^+ cells [2]; NSG mice, dmPGE2-treated cells",not negatively affected
same,time over which difference in VCN was maintained after transplantation into NSG mice,cord blood CD34^+ cells [2]; after transplantation of dmPGE2-treated cells,more than 4 months
same,increase in gene transfer (VCN),"cord blood CD34^+ cells [3]; 10 μM dmPGE2 during 18 h pre-stimulation, LV 10^8 TU/mL 24 h, VCN after 14 days culture",50%
same,increased gene transfer efficiency,cord blood CD34^+ cells [3]; CD34^+ or CD34^+CD38^− HSPC from cord blood after dmPGE2 treatment,1.5 fold
same,sustained gain in transduction efficiency in long-term repopulating cells,"[4]; P1 condition (dmPGE2 after thawing, 44 h culture), donor 2, BM 13 weeks after transplantation",did not result in a sustained gain in transduction efficiency
same,transduction-promoting effect in long-term repopulating cells,"[4]; P2 (24 h culture with dmPGE2), donor 2, BM 13 weeks after transplantation",increased transduction well above levels achieved by a 44 h standard protocol
same,increase in VCN into long-term repopulating cells,"[4]; P2 condition (dmPGE2 after thawing, 24 h culture), donor 1, BM 20 weeks post transplantation",~50%
same,"increase in VCN, P3 protocol","[4]; P3 (dmPGE2 120 min before transduction, 44 h culture), donor 1, BM 20 weeks",not statistically significant
same,increase in VCN,"human HSPCs; dmPGE2 added 2 h before LV exposure (t=−2 h), 1 cord blood and 1 mobilised peripheral blood donor",100%
same,VCN increase,human HSPCs; dmPGE2 added at the time of thawing (t=−16 h),~50%
same,transduction by lentiviral vectors,[5],more efficient transduction
